Measured values published in US8076485B2, “Methylphenidate derivatives and uses of them” (priority 2005, dated 2011).

Assays:
[1] = system: CD3/CD28 stimulated TRiPS cells; test: Custom AntibodyArray of cell extracts of CD3/CD28 stimulated TRiPS cells; format: cell-based, human; conditions: 15 μg/ml, 30 minutes; antibody array, phospho-specific detection
Procedure: Day 18 TRiPS cells, 1×10^6, were incubated for 30 minutes at 37° C., either with nothing added (“Nil”), with 1 μl CD3/CD28 Dynabeads (Dynal, Oslo, Norway) (“CD3/CD28 beads”) per 100,000 cells, or with CD3/CD28 beads and 15 μg/ml of the compound of formula II (Cpd II). After the incubation, the cells were lysed in Cell-Lytic Mammalian Cell Extraction Reagent (Sigma). After centrifugation to pellet cellular debris, the supernatants (cell extracts) were obtained.
The cell extracts (supernatants) were then analyzed using a Custom AntibodyArray™ manufactured by Hypromatrix Inc., Worcester, Mass., following the manufacturer's instructions. The Custom AntibodyArray™ is a nylon membrane blotted with antibodies to the proteins listed below. Briefly, the cell extracts were incubated with duplicate Custom AntibodyArray™, s for 2 hours at room temperature with slow shaking, followed by three washes with Tris buffer (150 mM NaCl, 25 mM Tris, 0.05% Tween-20, pH 7.5). HRP-labeled antibodies specific for phosphorylated-tyrosine, phosphorylated-serine and phosphorylated-threonine in Tris buffer were added, and the arrays incubated for 2 hours. After three more washes with Tris buffer, a peroxidase-reactive luminescent substrate was added. The arrays were visualized by exposure to X-ray film. Densitometry of the X-ray films was measured by scanning and computer analysis.

[2] = system: human umbilical vein endothelial cells (HUVECs); test: HUVEC tube formation assay; format: cell-based; conditions: 18 hours, 5% FCS, 30 μg Cpd II or MP in 1 ml, LY 294002 50 μM
Procedure: Passage 4 (i.e., […]) human umbilical vein endothelial cells (HUVECs), human source lot number 9713 (obtained from ATCC) in 1 ml of endothelial growth medium-2 (EGM-2) (obtained from Cambrex) were mixed with 30 μg of the compound of formula II (Cpd II) in endothelial basal medium-2 (EBM-2) (Cambrex) or 30 μg methylphenidate (MP) in EBM-2. Water (vehicle for the two test compounds) was used as a control, and the PI3 kinase inhibitor, LY 294002 (Sigma), at 50 μM, was included as a positive control. Then, the cells were seeded at 10,000 cells/well into the wells of a plate contained in a tube formation assay kit obtained from BD Biosciences, Rockville, Md. The wells of the plate contained an extracellular matrix protein gel. Fetal calf serum (FCS) (ATCC) was added to a final concentration of 5% to initiate tube formation. Then, the plates were incubated for 18 hours at 37° C. and 5% CO2. Following the incubation, the plates were photographed with a digital camera attached to an inverted microscope (Olympus IMT-2 set at a phase contrast (PC) of 10).
When endothelial cells are cultured on extracellular matrix protein gels in the presence of angiogenic signals, they arrange themselves into structures loosely resembling capillary blood vessels. […]

c-Jun = c-Jun in VEGF-treated HUVECs (TransAM AP-1 assay); format: cell-based, human; conditions: Cpd II at 15 μg/ml and 5 μg/ml
Procedure: The amount of c-Jun was determined using a TransAM™ AP-1 Family Transcription Factor Assay Kit and a Nuclear Extract Kit from Active Motif North America, Carlsbad, Calif., according to manufacturer's instructions. Briefly, a nuclear extract of the cells was prepared using the Nuclear Extract Kit. Then, the nuclear extract was added to the wells of a 96-well plate in which oligonucleotide containing a TPA-responsive element (TRE) was immobilized. Activator protein-1 (AP-1) dimers contained in the nuclear extract were bound to this oligonucleotide and were detected using an antibody specific for c-Jun. A secondary antibody conjugated to horseradish peroxidase (HRP) was next added to provide a colorimetric readout that was quantified by spectrophotometry (measurement at 450 nm).

Ras = Ras activation pulldown assay in TRiPS cells; format: cell-based, human; conditions: 15 μg/ml
Procedure: Day 10 TRiPS cells, 1×10^6, were incubated with 15 μg/ml of the compound of formula II (Cpd II) for 1 hour at 37° C. Then, the cells were incubated with CD3/CD28 beads (1 μl per 100,000 cells) (obtained from Dynal) for 10 minutes at 37° C. The cells were then lysed with a mild buffer (supplied with Pierce EZ-Detect activation kit described below) to produce cell extracts. Protein concentrations of the resulting extracts were determined by bicinchoninic acid (BCA) assay (Pierce) and placed on ice for immediate use.
Pulldown assays were performed using Pierce EZ-Detect activation kits according to the manufacturer's instructions utilizing GST-RAF-1-RBD and GST-RalGDS-RBD for Ras and RAP-1 respectively. Briefly, 400 μg total protein from each extract was combined with recombinant protein and glutathione resin and incubated at 4° C. for one hour with gentle shaking The resin was then washed to remove unbound protein and the activated Ras and RAP-1 proteins were removed by boiling in the presence of SDS-PAGE loading dye containing reducing agent. Ras and RAP-1 western blots were performed to visualize the proteins using antibodies supplied with the kit. Densitometry of the X-ray films was done by scanning and computer analysis.

[3] = mice; cited from earlier work

COC(=O)C(c1ccc(-c2ccccc2)cc1)C1CCCCN1 (stereo not shown) [Cpd II]
Effect of Cpd II on the protein in CD3/CD28 stimulated TRiPS cells: 14-3-3 [1]: Slightly decreased the level | Effect of Cpd II on the protein in CD3/CD28 stimulated TRiPS cells: IL-2 [1]: Decreased level back to basal levels (Nil control) | Effect of Cpd II on the protein in CD3/CD28 stimulated TRiPS cells: IL-4 [1]: Decreased level back to basal levels (Nil control) | Effect of Cpd II on the protein in CD3/CD28 stimulated TRiPS cells: IL-7y [1]: Decreased level back to basal levels (Nil control) | Effect of Cpd II on the protein in CD3/CD28 stimulated TRiPS cells: IkB-r [1]: Decreased level back to basal levels (Nil control) | Effect of Cpd II on the protein in CD3/CD28 stimulated TRiPS cells: IkB-α [1]: Slightly decreased the level | Effect of Cpd II on the protein in CD3/CD28 stimulated TRiPS cells: IkB-β [1]: Decreased level back to basal levels (Nil control) | Effect of Cpd II on the protein in CD3/CD28 stimulated TRiPS cells: IkB-ε [1]: Slightly decreased the level | Effect of Cpd II on the protein in CD3/CD28 stimulated TRiPS cells: JAK2 [1]: Activated | Effect of Cpd II on the protein in CD3/CD28 stimulated TRiPS cells: JNK1 [1]: Decreased level back to basal levels (Nil control) | Effect of Cpd II on the protein in CD3/CD28 stimulated TRiPS cells: JNK2 [1]: Decreased level back to basal levels (Nil control) | Effect of Cpd II on the protein in CD3/CD28 stimulated TRiPS cells: JNK3 [1]: Decreased level back to basal levels (Nil control) | Effect of Cpd II on the protein in CD3/CD28 stimulated TRiPS cells: MEK1 [1]: Decreased level to below basal levels (Nil control) | Effect of Cpd II on the protein in CD3/CD28 stimulated TRiPS cells: MEKK1 [1]: Decreased level back to basal levels (Nil control) | Effect of Cpd II on the protein in CD3/CD28 stimulated TRiPS cells: PI3kinaseP85 [1]: Activated | Effect of Cpd II on the protein in CD3/CD28 stimulated TRiPS cells: RAP1 [1]: Activated | Effect of Cpd II on the protein in CD3/CD28 stimulated TRiPS cells: RAP2 [1]: Activated | Effect of Cpd II on the protein in CD3/CD28 stimulated TRiPS cells: STAT4 [1]: Activated | Effect of Cpd II on the protein in CD3/CD28 stimulated TRiPS cells: STAT5b [1]: Activated | Effect of Cpd II on the protein in CD3/CD28 stimulated TRiPS cells: STAT6 [1]: Slightly decreased the level | tube formation (branching and cellular interaction of endothelial cells) [2]: reduced the amount of branching and cellular interaction | increase in the amount of c-Jun (c-Jun): completely eliminated the increase in the amount of c-Jun | inhibition of Ras protein (Ras): very strong inhibition of Ras protein

COC(=O)C(c1ccccc1)C1CCCCN1 (stereo not shown) [methylphenidate]
tube formation (branching and cellular interaction of endothelial cells) [2]: no observable effect | carcinogenicity [3]: some evidence that methylphenidate is carcinogenic in mice
